What was measured:
[1] = Thermodynamic solubility of salts in water; type: physicochemical; conditions: for Solubility: 37° C., pH 6.8-7.4, stirring 500 rpm, 24 hours
Protocol: Each of the sodium, potassium, L-Arg and L-Lys salts prepared as described above was dissolved in water at a temperature of 37° C., pH 6.8-7.4 at a stirring rate of 500 rpm for 24 hours.

[2] = Stability of salts on storage at room temperature and 80% relative humidity (XRPD); type: physicochemical; conditions: for changes in the XRPD pattern after storage: 7 days at room temperature and 80% relative humidity
Protocol: Each of the salts obtained was characterized by X-ray powder diffraction (XRPD), Thermogravimetric analysis (TGA), and Differential Scanning calorimetry (DSC). Furthermore, the stabilities of the sodium, potassium, L-Arginine and L-Lysine salts were tested by storage for 7 days at room temperature and 80% relative humidity.

For `O=C(O)C1(c2ccc(-c3ccc(Cl)c(Cl)c3)c(F)c2)CC1` [L-Arginine, 1-(3′,4′-dichloro-2-fluorobiphenyl-4-yl)cyclopropanecarboxylic acid], the “solubility in water (in words)” value [1] was “excellent solubility”, the “Solubility” value [1] was 15.2 mg/mL and the “changes in the XRPD pattern after storage” value (shortened to “changes in the XRPD pattern”) [2] was “No changes”. For the same compound, the “stability when stored under conditions of high humidity (in words)” value (from here on “stability when stored under conditions”) [2] was “good stability”.

With `O=C(O)C1(c2ccc(-c3ccc(Cl)c(Cl)c3)c(F)c2)CC1` [L-Lysine, 1-(3′,4′-dichloro-2-fluorobiphenyl-4-yl)cyclopropanecarboxylic acid] the “solubility in water (in words)” value [1] was “excellent solubility”, the “Solubility” value [1] was 36.6 mg/mL and the “changes in the XRPD pattern” value [2] was “No changes”. For the same compound, the “stability when stored under conditions” value [2] was “good stability”.

In the case of `O=C(O)C1(c2ccc(-c3ccc(Cl)c(Cl)c3)c(F)c2)CC1` [Potassium, 1-(3′,4′-dichloro-2-fluorobiphenyl-4-yl)cyclopropanecarboxylic acid], the “solubility in water (in words)” value [1] is reported as “excellent solubility”, the “Solubility” value [1] is reported as 6.3 mg/mL and the “changes in the XRPD pattern” value [2] is reported as “No changes”. The “stability when stored under conditions” value [2] was “good stability”.

In the case of `O=C(O)C1(c2ccc(-c3ccc(Cl)c(Cl)c3)c(F)c2)CC1` [Sodium, 1-(3′,4′-dichloro-2-fluorobiphenyl-4-yl)cyclopropanecarboxylic acid], the “solubility in water (in words)” value [1] is reported as “excellent solubility”, the “Solubility” value [1] is reported as 20.4 mg/mL and the “changes in the XRPD pattern” value [2] is reported as “No changes”. For the same compound, the “stability when stored under conditions” value [2] was “good stability”.

Source: patent publication US20160193165A1, “NOVEL POLYMORPHS AND SALTS” (CHIESI FARMACEUTICI S.p.A., priority 2010, published 2016)
